Literature values, collected in article PMC3161514 (Chemistry & biology, 2011).

Assays:
[1] = tested on: methicillin-resistant S. aureus (MRSA); conditions: MIC values among the lowest reported for lantibiotics, ref Ekkelenkamp, et al., 2005, Verhoef
[2] = tested on: vancomycin-resistant Enterococci (VRE); conditions: MIC values among the lowest reported for lantibiotics, ref Ekkelenkamp, et al., 2005, Verhoef
[3] = tested on: several strains of S. aureus; conditions: against several strains of S. aureus; ref Castiglione, et al., 2008

Substance	Activity against MRSA [1]	Activity against VRE [2]	Potency relative to epidermin [3]
epilancin 15X	active	active	
microbisporicin			two orders of magnitude more potent
